pIC50: −log10 of the molar value.
Columns and labels:
PI3Kα = target: T1, PI3Kα (Homo sapiens, UniProt P42336); test: PI3 Kinase alpha TR-FRET assay; assay type: biochemical
T1 construct: made in house; host or cells: SF9 cells
Outline: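 Purified Sf9-expressed p110/p85α (5 ng) was pre-incubated with compound and PIP2 at rt, then ATP was added (PIP2 and ATP both 40 μM) for a 30 min reaction. PIP3 was detected by TR-FRET displacement of biotin-PIP3, and IC50 was taken from dose-response curves of the 665/615 nm emission ratio.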

pERK in A375 cells = test: In Cell Western (ICW) assay, pERK in A375 cells; assay type: cell-based; conditions: Homo sapiens, A-375, 3 h treatment
Outline: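 After a 3 h compound treatment at 37 °C, fixed RKO or A375 cells were probed for phospho-ERK1/2 (T202/Y204), phospho-S6RP or phospho-AKT T308 and detected with a Eu-tagged anti-rabbit antibody (ex 340/em 615 nm), with Hoechst signal as the cell-number correction. Inhibition was referenced to DMSO, and IC50 values came from sigmoidal dose-response curves.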

A375 cells = test: XTT assay for cell viability, A375 cells; assay type: cell-based; conditions: Homo sapiens, A-375, 72 h
Outline: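 GI50 derived by sigmoidal dose-response fitting of proliferation normalised to DMSO control (100%). Readout: A450 after 2-3 h with XTT (1 mg/ml)/PMS (25 μM), following 72 h compound treatment at 37° C., 5% CO2 of cells plated at 1000-2000 per well the previous day.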

T1 sequence (P42336 whole entry, species assumed): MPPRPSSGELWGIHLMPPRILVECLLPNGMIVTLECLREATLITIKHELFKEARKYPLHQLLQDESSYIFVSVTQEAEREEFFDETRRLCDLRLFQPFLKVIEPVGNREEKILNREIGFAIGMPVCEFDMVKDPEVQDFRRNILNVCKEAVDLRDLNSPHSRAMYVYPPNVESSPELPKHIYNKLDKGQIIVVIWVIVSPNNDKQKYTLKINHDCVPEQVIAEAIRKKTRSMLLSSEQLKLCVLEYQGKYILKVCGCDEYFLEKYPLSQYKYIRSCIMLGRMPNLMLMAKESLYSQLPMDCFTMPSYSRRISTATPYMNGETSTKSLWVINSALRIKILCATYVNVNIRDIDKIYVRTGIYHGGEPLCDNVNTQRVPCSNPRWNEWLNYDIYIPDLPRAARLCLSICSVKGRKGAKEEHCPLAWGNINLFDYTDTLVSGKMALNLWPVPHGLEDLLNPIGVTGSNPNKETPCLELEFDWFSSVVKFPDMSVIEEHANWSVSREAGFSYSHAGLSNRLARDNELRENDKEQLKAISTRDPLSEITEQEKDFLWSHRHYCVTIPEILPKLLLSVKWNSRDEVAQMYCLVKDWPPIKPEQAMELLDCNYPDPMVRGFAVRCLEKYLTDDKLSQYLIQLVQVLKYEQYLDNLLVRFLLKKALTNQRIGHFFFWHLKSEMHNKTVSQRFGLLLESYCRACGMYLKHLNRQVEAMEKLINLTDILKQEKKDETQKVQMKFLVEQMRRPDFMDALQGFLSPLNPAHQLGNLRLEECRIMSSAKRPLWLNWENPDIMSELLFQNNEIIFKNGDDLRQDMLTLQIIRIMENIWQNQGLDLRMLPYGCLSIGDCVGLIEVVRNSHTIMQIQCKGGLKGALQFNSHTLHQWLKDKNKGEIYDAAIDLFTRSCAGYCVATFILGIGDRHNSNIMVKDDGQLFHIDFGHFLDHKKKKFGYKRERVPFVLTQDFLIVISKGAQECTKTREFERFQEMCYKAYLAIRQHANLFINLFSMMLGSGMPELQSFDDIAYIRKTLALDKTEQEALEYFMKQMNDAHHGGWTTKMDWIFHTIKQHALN
T1 sequence (P27986 whole entry partner, species assumed): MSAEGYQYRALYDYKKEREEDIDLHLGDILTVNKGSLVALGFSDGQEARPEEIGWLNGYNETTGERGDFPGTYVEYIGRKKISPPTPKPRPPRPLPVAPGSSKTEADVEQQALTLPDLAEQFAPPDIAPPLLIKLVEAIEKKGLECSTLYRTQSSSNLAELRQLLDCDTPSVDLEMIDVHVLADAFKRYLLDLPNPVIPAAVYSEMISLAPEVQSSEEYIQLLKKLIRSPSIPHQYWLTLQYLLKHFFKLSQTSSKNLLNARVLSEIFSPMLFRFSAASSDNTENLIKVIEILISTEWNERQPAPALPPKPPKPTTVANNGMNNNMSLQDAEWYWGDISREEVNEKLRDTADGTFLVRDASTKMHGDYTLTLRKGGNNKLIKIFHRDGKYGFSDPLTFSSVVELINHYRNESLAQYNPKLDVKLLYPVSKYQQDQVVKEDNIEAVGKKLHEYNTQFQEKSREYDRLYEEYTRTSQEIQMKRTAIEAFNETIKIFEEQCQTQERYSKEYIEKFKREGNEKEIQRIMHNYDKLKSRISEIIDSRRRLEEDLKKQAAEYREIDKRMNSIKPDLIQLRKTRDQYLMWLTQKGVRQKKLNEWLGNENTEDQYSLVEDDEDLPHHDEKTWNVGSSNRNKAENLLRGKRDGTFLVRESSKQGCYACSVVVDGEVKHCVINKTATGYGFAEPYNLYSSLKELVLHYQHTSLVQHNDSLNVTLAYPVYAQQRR

SMILES | pIC50 (PI3Kα) | pIC50 (pERK in A375 cells) | pIC50 (A375 cells)
CNC(=O)Nc1ccc(-c2nc(N3CCOCC3)c3cc(-c4cccc(NS(=O)(=O)CCCF)c4F)cc(OC)c3n2)cn1 [Example 39, 3-fluoro-N-(2-fluoro-3-(8-methoxy-2-(6-(3-methylureido)pyridin-3-yl)-4-morpholinoquinazolin-6-yl)phenyl)propane-1-sulfonamide] | 6.00 to 7.00 | 7.00 to 9.00 | 7.00 to 9.00
Nc1ncc(-c2nc(N3CCOCC3)c3cc(-c4cccc(NS(=O)(=O)CCCF)c4F)cc(N4CCOCC4)c3n2)cn1 [Example 69, N-(3-(2-(2-aminopyrimidin-5-yl)-4,8-dimorpholinoquinazolin-6-yl)-2-fluorophenyl)-3-fluoropropane-1-sulfonamide] | 6.00 to 7.00 | 7.00 to 9.00 | 7.00 to 9.00
COc1cc(-c2c(F)ccc(NS(=O)(=O)CCCF)c2F)cc2c(N3CCOCC3)nc(-c3ccc(N)nc3)nc12 [Example 79, N-(3-(2-(6-aminopyridin-3-yl)-8-methoxy-4-morpholinoquinazolin-6-yl)-2,4-difluorophenyl)-3-fluoropropane-1-sulfonamide] | 6.00 to 7.00 | 7.00 to 9.00 | 7.00 to 9.00
CCCS(=O)(=O)Nc1cccc(-c2ccc3nc(-c4ccc(N)nc4)nc(N4CCOCC4)c3n2)c1F [Example 86, N-(3-(2-(6-aminopyridin-3-yl)-4-morpholinopyrido[3,2-d]pyrimidin-6-yl)-2-fluorophenyl)propane-1-sulfonamide] | 7.00 to 9.00 | 6.00 to 7.00 | 6.00 to 7.00
Nc1ncc(-c2nc(N3CCOCC3)c3nc(-c4cccc(NS(=O)(=O)CCCF)c4F)ccc3n2)cn1 [Example 87, N-(3-(2-(2-aminopyrimidin-5-yl)-4-morpholinopyrido[3,2-d]pyrimidin-6-yl)-2-fluorophenyl)-3-fluoropropane-1-sulfonamide] | 7.00 to 9.00 | 6.00 to 7.00 | 6.00 to 7.00
Nc1ccc(-c2nc(N3CCOCC3)c3nc(-c4cccc(NS(=O)(=O)CCCF)c4F)ccc3n2)cn1 [Example 88, N-(3-(2-(6-aminopyridin-3-yl)-4-morpholinopyrido[3,2-d]pyrimidin-6-yl)-2-fluorophenyl)-3-fluoropropane-1-sulfonamide] | 7.00 to 9.00 | 6.00 to 7.00 | 6.00 to 7.00
Cc1cc(-c2nc(N3CCOCC3)c3nc(-c4cccc(NS(=O)(=O)CCCF)c4F)ccc3n2)cnc1N [Example 90, N-(3-(2-(6-amino-5-methylpyridin-3-yl)-4-morpholinopyrido[3,2-d]pyrimidin-6-yl)-2-fluorophenyl)-3-fluoropropane-1-sulfonamide] | 6.00 to 7.00 | 6.00 to 7.00 | 6.00 to 7.00
Nc1ccc(-c2nc(N3CCOCC3)c3nc(-c4cccc(NS(=O)(=O)c5cc(F)ccc5F)c4F)ccc3n2)cn1 [Example 92, N-(3-(2-(6-aminopyridin-3-yl)-4-morpholinopyrido[3,2-d]pyrimidin-6-yl)-2-fluorophenyl)-2,5-difluorobenzenesulfonamide] | 7.00 to 9.00 | 7.00 to 9.00 | 7.00 to 9.00
Nc1cc(C(F)(F)F)c(-c2nc(N3CCOCC3)c3nc(-c4cccc(NS(=O)(=O)CCCF)c4F)ccc3n2)cn1 [Example 94, N-(3-(2-(6-amino-4-(trifluoromethyl)pyridin-3-yl)-4-morpholinopyrido[3,2-d]pyrimidin-6-yl)-2-fluorophenyl)-3-fluoropropane-1-sulfonamide] | 7.00 to 9.00 | 7.00 to 9.00 | 6.00 to 7.00
C[C@@H]1COCCN1c1nc(-c2ccc(N)nc2)nc2ccc(-c3cccc(NS(=O)(=O)CCCF)c3F)nc12 [Example 96, (R)-N-(3-(2-(6-aminopyridin-3-yl)-4-(3-methylmorpholino)pyrido[3,2-d]pyrimidin-6-yl)-2-fluorophenyl)-3-fluoropropane-1-sulfonamide] | 6.00 to 7.00 | 7.00 to 9.00 | 7.00 to 9.00
C[C@@H]1COCCN1c1nc(-c2cnc(N)nc2)nc2ccc(-c3cccc(NS(=O)(=O)CCCF)c3F)nc12 [Example 97, (R)-N-(3-(2-(2-aminopyrimidin-5-yl)-4-(3-methylmorpholino)pyrido[3,2-d]pyrimidin-6-yl)-2-fluorophenyl)-3-fluoropropane-1-sulfonamide] | 7.00 to 9.00 | 7.00 to 9.00 | 6.00 to 7.00
O=S(=O)(CCCF)Nc1cccc(-c2ccc3nc(-c4ccc(NCCO)nc4)nc(N4CCOCC4)c3n2)c1F [Example 99, 3-fluoro-N-(2-fluoro-3-(2-(6-((2-hydroxyethyl)amino)pyridin-3-yl)-4-morpholinopyrido[3,2-d]pyrimidin-6-yl)phenyl)propane-1-sulfonamide] | 6.00 to 7.00 | 7.00 to 9.00 | 6.00 to 7.00
Nc1cc(F)c(-c2nc(N3CCOCC3)c3nc(-c4cccc(NS(=O)(=O)CCCF)c4F)ccc3n2)cn1 [Example 102, N-(3-(2-(6-amino-4-fluoropyridin-3-yl)-4-morpholinopyrido[3,2-d]pyrimidin-6-yl)-2-fluorophenyl)-3-fluoropropane-1-sulfonamide] | 7.00 to 9.00 | 6.00 to 7.00 | 6.00 to 7.00
Nc1cc(C(F)(F)F)c(-c2nc(N3CCOCC3)c3nc(-c4cccc(NS(=O)(=O)c5c(F)cccc5F)c4F)ccc3n2)cn1 [Example 106, N-(3-(2-(6-amino-4-(trifluoromethyl)pyridin-3-yl)-4-morpholinopyrido[3,2-d]pyrimidin-6-yl)-2-fluorophenyl)-2,6-difluorobenzenesulfonamide] | 7.00 to 9.00 | 5.00 to 6.00 | 6.00 to 7.00
C[C@H]1COCCN1c1nc(-c2cnc(N)cc2C(F)(F)F)nc2ccc(-c3cccc(NS(=O)(=O)CCCF)c3F)nc12 [Example 108, (S)-N-(3-(2-(6-amino-4-(trifluoromethyl)pyrldin-3-yl)-4-(3-methylmorpholino)pyrido[3,2-d]pyrimidin-6-yl)-2-fluorophenyl)-3-fluoropropane-1-sulfonamide] | 7.00 to 9.00 | 7.00 to 9.00 | 6.00 to 7.00
CNc1ccc(-c2nc(N3CCOCC3)c3nc(-c4cccc(NS(=O)(=O)CCCF)c4F)ccc3n2)cn1 [Example 113, 3-fluoro-N-(2-fluoro-3-(2-(6-(methylamino)pyridin-3-yl)-4-morpholinopyrido[3,2-d]pyrimidin-6-yl)phenyl)propane-1-sulfonamide] | 7.00 to 9.00 | 7.00 to 9.00 | 6.00 to 7.00

More lines, now with the values ahead:

pIC50 (PI3Kα) | pIC50 (pERK in A375 cells) | pIC50 (A375 cells) | SMILES
7.00 to 9.00 | 6.00 to 7.00 | 6.00 to 7.00 | CCCS(=O)(=O)Nc1cccc(-c2ccc3nc(-c4cnc(N)nc4)nc(N4CCOCC4)c3n2)c1F [Example 7, N-(3-(2-(2-aminopyrimidin-5-yl)-4-morpholinopyrido[3,2-d]pyrimidin-6-yl)-2-fluorophenyl)propane-1-sulfonamide]
6.00 to 7.00 | 7.00 to 9.00 | 6.00 to 7.00 | COc1cc2nc(-c3cnc(N)nc3)nc(N3CCOCC3)c2cc1-c1cccc(NS(=O)(=O)CCCF)c1F [Example 11, N-(3-(2-(2-aminopyrimidin-5-yl)-7-methoxy-4-morpholinoquinazolin-6-yl)-2-fluorophenyl)-3-fluoropropane-1-sulfonamide]
6.00 to 7.00 | 7.00 to 9.00 | 7.00 to 9.00 | COc1cc(-c2cccc(NS(=O)(=O)CCCF)c2F)cc2c(N3CCOC[C@H]3C)nc(-c3cnc(N)nc3)nc12 [Example 43, (R)-N-(3-(2-(2-aminopyrimidin-5-yl)-8-methoxy-4-(3-methylmorpholino)quinazolin-6-yl)-2-fluorophenyl)-3-fluoropropane-1-sulfonamide]
7.00 to 9.00 | 6.00 to 7.00 | 6.00 to 7.00 | Nc1ncc(-c2nc(N3CCOCC3)c3nc(-c4cccc(NS(=O)(=O)c5cc(F)ccc5F)c4F)ccc3n2)cn1 [Example 93, N-(3-(2-(2-aminopyrimidin 5-yl)-4-morpholinopyrido[3,2-d]pyrimidin-6-yl)-2-fluorophenyl)-2,5-difluorobenzenesulfonamide]
6.00 to 7.00 | 6.00 to 7.00 | 6.00 to 7.00 | Nc1ccc(-c2nc(N3CCOCC3)c3nc(-c4cccc(NS(=O)(=O)c5c(F)cccc5F)c4F)ccc3n2)cn1 [Example 95, N-(3-(2-(6-aminopyridin-3-yl)-4-morpholinopyrido[3,2-d]pyrimidin-6-yl)-2-fluorophenyl)-2,6-difluorobenzenesulfonamide]
7.00 to 9.00 | 7.00 to 9.00 | 6.00 to 7.00 | Cc1cc(N)ncc1-c1nc(N2CCOCC2)c2nc(-c3cccc(NS(=O)(=O)CCCF)c3F)ccc2n1 [Example 101, N-(3-(2-(6-amino-4-methylpyrtdin-3-yl)-4-morpholinopyrldo[3,2-d]pyrimidin-6-yl)-2-fluorophenyl)-3-fluoropropane-1-sulfonamide]
6.00 to 7.00 | 6.00 to 7.00 | 6.00 to 7.00 | O=S(=O)(CCCF)Nc1cccc(-c2ccc3nc(-c4ccc(NCCCO)nc4)nc(N4CCOCC4)c3n2)c1F [Example 111, 3-fluoro-N-(2-fluoro-3-(2-(6-((3-hydroxypropyl)amino)pyridin-3-yl)-4-morpholinopyrido[3,2-d]pyrimidin-6-yl)phenyl)propane-1-sulfonamide]
6.00 to 7.00 | 7.00 to 9.00 | 7.00 to 9.00 | Cc1cc(-c2cccc(NS(=O)(=O)CCCF)c2F)cc2c(N3CCOCC3)nc(-c3cnc(N)nc3)nc12 [Example 116, N-(3-(2-(2-aminopyrimidin-5-yl)-8-methyl-4-morpholinoquinazolin-6-yl)-2-fluorophenyl)-3-fluoropropane-1-sulfonamide]

Reference: US9499495B2, “Quinazolines and azaquinazolines as dual inhibitors of RAS/RAF/MEK/ERK and PI3K/AKT/PTEN/mTOR pathways” (Asana Biosciences, LLC, priority 2013, dated 2016)
